Source: patent US20240262793A1, “QUINAZOLINE COMPOUND, AND PREPARATION METHOD THEREFOR AND APPLICATION THEREOF” (SHANGHAI PHARMACEUTICALS HOLDING CO., LTD., priority 2021, published 2024)

How the values were obtained:
Type in all cases: cell-based
IL-6 = assay: Inhibition of IL-6 in PMA-differentiated, LPS-stimulated THP-1 cells (ELISA of cell supernatant); conditions: Homo sapiens, LPS 100 ng/mL
Procedure: (§1) (1) Cell culture and inoculation: A stock solution of PMA at 1 mg/mL was diluted with serum-free RP1640 medium to prepare a 100 ng/mL PMA solution. Normal cultured THP-1 cells were centrifuged, resuspended in a complete medium (RP1640 medium containing 10% FBS), and counted. The cell density was adjusted to 2×10^6 cells/mL. An equal volume of 100 ng/mL PMA solution was then added, resulting in a cell density of 1×10^6 cells/mL and a final PMA concentration of 50 ng/mL. 100 μL of the cell suspension was seeded into each well of a 96-well cell culture plate with 1×10^5 cells per well. The 96-well cell culture plate was then incubated at 37° C. in a 5% CO2 atmosphere for 24 hours.
(§2) (2) Drug treatment of cells: On the second day, LPS was added to the complete medium to adjust the final concentration to 100 ng/mL, and the compound was prepared using this LPS-containing medium. The compound was added to the appropriate cell wells according to the prepared concentration gradient. The positive control group (LPS+) was a culture medium solution containing a final concentration of 100 ng/mL LPS and 0.1% DMSO without drugs, while the negative control group (LPS-) was a culture medium solution containing 0.1% DMSO without LPS. The volume in each well was 100 μL.
(§3) (3) Test sample collection: The mixture was centrifuged at 1000 rpm for 5 minutes and the cell supernatant and cell precipitate were collected separately. The cell supernatant was used to detect TNF-α and IL-6, and the cell precipitate was collected for IL-1β detection. After collecting the cell supernatant, the remaining liquid in the wells was discarded and 100 μL of cell lysis solution (20 mM Tris 8.0; 2 mM EDTA; 0.5% Triton X-100) was added to each well for complete lysis.
(§4) (4) Sample detection: The enzyme-linked immunosorbent assay (ELISA) was used to detect the content of each cytokine. The specific steps were performed according to the instructions provided in the corresponding kit manuals. The catalog numbers of kits are as follows: • Human TNF-alpha Quantikine ELISA Kit, Catalog # STA00D • Human IL-1 beta/IL-1F2 Quantikine ELISA Kit, Catalog # SLB50 • Human IL-6 Quantikine ELISA Kit, Catalog # S6050.
(§5) (5) Data analysis: The in vitro inhibitory activity of the compounds was calculated using the following formula: […]

TNF-α = assay: Inhibition of TNF-α in PMA-differentiated, LPS-stimulated THP-1 cells (ELISA of cell supernatant); conditions: Homo sapiens, THP-1, Table 7, PMA 50 ng/mL, LPS 100 ng/mL
Procedure: as §1, §2, §3, §4, §5

IL-1β = assay: Inhibition of IL-1β in PMA-differentiated, LPS-stimulated THP-1 cells (ELISA of cell lysate); conditions: Homo sapiens, LPS 100 ng/mL
Procedure: as §1, §2, §3, §4, §5

CC(CCCN1CCS(=O)(=O)CC1)Nc1ccnc2cc(Cl)ccc12 (centres unmarked) [Example 1, 4-(4-((7-Chloroquinolin-4-yl)amino)pentyl)thiomorpholine-1,1-dioxide]
IC50 (IL-6; THP-1, Table 7, PMA 50 ng/mL): 0.86 µM | IC50 (TNF-α): 31.7 µM | IC50 (IL-1β; THP-1, Table 7, PMA 50 ng/mL): 23.1 µM

CC(CCCN1C(=O)CN(C)C1=O)Nc1ccnc2cc(Cl)ccc12 (centres unmarked) [Example 2, 3-(4-((7-Chloroquinolin-4-yl)amino)pentyl)-1-methylimidazolidine-2,4-dione]
IC50 (IL-6; THP-1, Table 7, PMA 50 ng/mL): 1.17 µM | IC50 (TNF-α): 10.4 µM | IC50 (IL-1β; THP-1, Table 7, PMA 50 ng/mL): 17.9 µM

CC(CCCNCCN1CCCC1)Nc1ccnc2cc(Cl)ccc12 (centres unmarked) [Example 3, N^4-(7-Chloroquinolin-4-yl)-N^1-(2-(pyrrolidin-1-yl)ethyl)pentane-1,4-diamine]
IC50 (IL-6; THP-1, Table 7, PMA 50 ng/mL): 5.53 µM | IC50 (TNF-α): 56.5 µM

CC(CCCNCC1(C)COC1)Nc1ccnc2cc(Cl)ccc12 (centres unmarked) [Example 4, N^4-(7-Chloroquinolin-4-yl)-N^1-((3-methyloxetan-3-yl)methyl)pentane-1,4-diamine]
IC50 (IL-6; THP-1, Table 7, PMA 50 ng/mL): 1.28 µM | IC50 (TNF-α): 5.54 µM | IC50 (IL-1β; THP-1, Table 7, PMA 50 ng/mL): 14.4 µM

CCOc1ncccc1CNCCCC(C)Nc1ccnc2cc(Cl)ccc12 (centres unmarked) [Example 5, N^4-(7-Chloroquinolin-4-yl)-N^1-((2-ethoxypyridin-3-yl)methyl)pentane-1,4-diamine]
IC50 (IL-6; THP-1, Table 7, PMA 50 ng/mL): 3.95 µM | IC50 (TNF-α): 25.6 µM | IC50 (IL-1β; THP-1, Table 7, PMA 50 ng/mL): 19.5 µM

CC(CCCN1CC2(COC2)C1)Nc1ccnc2cc(Cl)ccc12 (centres unmarked) [Example 6, N-(5-(2-Oxa-6-azaspiro[3.3]heptan-6-yl)pentan-2-yl)-7-chloroquinolin-4-amine]
IC50 (IL-6; THP-1, Table 7, PMA 50 ng/mL): 23.9 µM | IC50 (TNF-α): 32.7 µM

CC(CCCN1CC2(CCOCC2)C1)Nc1ccnc2cc(Cl)ccc12 (centres unmarked) [Example 7, N-(5-(7-Oxa-2-azaspiro[3.5]nonan-2-yl)pentan-2-yl)-7-chloroquinolin-4-amine]
IC50 (IL-6; THP-1, Table 7, PMA 50 ng/mL): 2.06 µM | IC50 (TNF-α): 12.2 µM | IC50 (IL-1β; THP-1, Table 7, PMA 50 ng/mL): 30.1 µM

CC(CCCN1CC2CCCC2C1)Nc1ccnc2cc(Cl)ccc12 (centres unmarked) [Example 8, 7-Chloro-N-(5-(hexahydrocyclopenta[c]pyrrol-2 (1H)-yl)pentan-2-yl)quinolin-4-amine]
IC50 (IL-6; THP-1, Table 7, PMA 50 ng/mL): 3.29 µM | IC50 (TNF-α): 18.4 µM | IC50 (IL-1β; THP-1, Table 7, PMA 50 ng/mL): 34.1 µM

CCN1CCC2(C1)CN(CCCC(C)Nc1ccnc3cc(Cl)ccc13)C2 (centres unmarked) [Example 9, 7-Chloro-N-(5-(6-ethyl-2,6-diazaspiro[3.4]octan-2-yl)pentan-2-yl)quinolin-4-amine]
IC50 (IL-6; THP-1, Table 7, PMA 50 ng/mL): 10.5 µM | IC50 (TNF-α): 28.3 µM | IC50 (IL-1β; THP-1, Table 7, PMA 50 ng/mL): 48.3 µM

CC(CCCN1CC(F)(F)C1)Nc1ccnc2cc(Cl)ccc12 (centres unmarked) [Example 10, 7-Chloro-N-(5-(3,3-difluoroazetidin-1-yl)pentan-2-yl)quinolin-4-amine]
IC50 (IL-6; THP-1, Table 7, PMA 50 ng/mL): 0.38 µM | IC50 (TNF-α): 8.91 µM | IC50 (IL-1β; THP-1, Table 7, PMA 50 ng/mL): 15 µM

O=C1CCC(=O)N1CCCCNc1ccnc2cc(Cl)ccc12 [Example 11, 1-(4-((7-Chloroquinolin-4-yl)amino)butyl)pyrrolidine-2,5-dione]
IC50 (IL-6; THP-1, Table 7, PMA 50 ng/mL): 10.6 µM | IC50 (TNF-α): 29.9 µM | IC50 (IL-1β; THP-1, Table 7, PMA 50 ng/mL): 24.3 µM

CC(CCCN1C(=O)CNC1=O)Nc1ccnc2cc(F)ccc12 (centres unmarked) [Example 12, 3-(4-((7-Fluoroquinolin-4-yl)amino)pentyl)imidazolidine-2,4-dione]
IC50 (IL-6; THP-1, Table 7, PMA 50 ng/mL): 20.5 µM

CC(CCCN1C(=O)CNC1=O)Nc1ncnc2cc(Cl)ccc12 (centres unmarked) [Example 13, 3-(4-((7-Chloroquinazolin-4-yl)amino)pentyl)imidazolidine-2,4-dione]
IC50 (IL-6; THP-1, Table 7, PMA 50 ng/mL): 1.8 µM | IC50 (TNF-α): 7.83 µM | IC50 (IL-1β; THP-1, Table 7, PMA 50 ng/mL): 28.6 µM

CC(CCCN1CC2(CCOCC2)C1)Nc1ncnc2cc(F)ccc12 (centres unmarked) [Example 14, N-(5-(7-Oxa-2-azaspiro[3.5]nonan-2-yl)pentan-2-yl)-7-fluoroquinazolin-4-amine]
IC50 (IL-6; THP-1, Table 7, PMA 50 ng/mL): 2.98 µM

CC(CCCN1C(=O)CCC1=O)Nc1ncnc2cc(Cl)ccc12 (centres unmarked) [Example 15, 1-(4-((7-Chloroquinazolin-4-yl)amino)pentyl)pyrrolidine-2,5-dione]
IC50 (IL-6; THP-1, Table 7, PMA 50 ng/mL): 1.24 µM | IC50 (TNF-α): 17.4 µM

CC(CCCN(CCO)Cc1ncco1)Nc1ncnc2cc(Cl)ccc12 (centres unmarked) [Example 16, 2-((4-((7-Chloroquinazolin-4-yl)amino)pentyl)(oxazol-2-ylmethyl)amino)ethan-1-ol]
IC50 (IL-6; THP-1, Table 7, PMA 50 ng/mL): 0.59 µM | IC50 (TNF-α): 53.2 µM | IC50 (IL-1β; THP-1, Table 7, PMA 50 ng/mL): 23.4 µM

CC(CCCN(CCO)Cc1cccc(F)c1)Nc1ccnc2cc(Cl)ccc12 (centres unmarked) [Example 17, 2-((4-((7-Chloroquinolin-4-yl)amino)pentyl)(3-fluorobenzyl)amino)ethan-1-ol]
IC50 (IL-6; THP-1, Table 7, PMA 50 ng/mL): 0.641 µM | IC50 (TNF-α): 4.72 µM | IC50 (IL-1β; THP-1, Table 7, PMA 50 ng/mL): 23.6 µM

CC(CCCN(CCO)Cc1ccc(F)cc1F)Nc1ccnc2cc(Cl)ccc12 (centres unmarked) [Example 18, 2-((4-((7-Chloroquinolin-4-yl)amino)pentyl)(2,4-difluorobenzyl)amino)ethan-1-ol]
IC50 (IL-6; THP-1, Table 7, PMA 50 ng/mL): 0.226 µM | IC50 (TNF-α): 3.26 µM | IC50 (IL-1β; THP-1, Table 7, PMA 50 ng/mL): 2.94 µM

CC(CCCN(CCO)Cc1cnccn1)Nc1ccnc2cc(Cl)ccc12 (centres unmarked) [Example 32, 2-((4-((7-Chloroquinolin-4-yl)amino)pentyl)(pyrazin-2-ylmethyl)amino)ethan-1-ol]
IC50 (IL-6; THP-1, Table 7, PMA 50 ng/mL): 0.63 µM

CC(CCCN(CCO)Cc1ncn(C)n1)Nc1ccnc2cc(Cl)ccc12 (centres unmarked) [Example 33, 2-((4-((7-Chloroquinolin-4-yl)amino)pentyl)((1-methyl-1H-1,2,4-triazol-3-yl)methyl)amino)ethan-1-ol]
IC50 (IL-6; THP-1, Table 7, PMA 50 ng/mL): 3.85 µM

CC(CCCN(CCO)Cc1c(F)cccc1Cl)Nc1ncnc2cc(Cl)ccc12 (centres unmarked) [Example 38]
IC50 (IL-6; THP-1, Table 7, PMA 50 ng/mL): 0.12 µM | IC50 (TNF-α): 7.28 µM

CC(CCCN(CCO)Cc1ncco1)Nc1ccnc2cc(F)ccc12 (centres unmarked) [Example 41]
IC50 (IL-6; THP-1, Table 7, PMA 50 ng/mL): 30.4 µM

OCCN(CCCCCNc1ncnc2cc(Cl)ccc12)Cc1ncco1 [Example 46, 2-((5-((7-Chloroquinazolin-4-yl)amino)pentyl)(oxazol-2-ylmethyl)amino)ethan-1-ol]
IC50 (IL-6; THP-1, Table 7, PMA 50 ng/mL): 0.27 µM | IC50 (TNF-α): 56.7 µM

O=C1CNC(=O)N1CCCCCNc1ncnc2cc(F)ccc12 [Example 50, 3-(5-((7-Fluoroquinazolin-4-yl)amino)pentyl)imidazolidine-2,4-dione]
IC50 (IL-6; THP-1, Table 8, PMA 50 ng/mL): 3.99 µM | IC50 (IL-1β; THP-1, Table 8, PMA 50 ng/mL): 122 µM

CC1(C)NC(=O)N(CCCCCNc2ncnc3cc(F)ccc23)C1=O [Example 53, 3-(5-((7-Fluoroquinazolin-4-yl)amino)pentyl)-5,5-dimethylimidazoline-2,4-dione]
IC50 (IL-6; THP-1, Table 8, PMA 50 ng/mL): 0.52 µM | IC50 (IL-1β; THP-1, Table 8, PMA 50 ng/mL): 118 µM

O=C1NC2(CCNCC2)C(=O)N1CCCCNc1ncnc2cc(F)ccc12 [Example 60, 3-(4-((7-Fluoroquinazolin-4-yl)amino)butyl)-1,3,8-triazaspiro[4.5]decane-2,4-dione]
IC50 (IL-6; THP-1, Table 8, PMA 50 ng/mL): 34 µM

O=C1NC2(CC2)C(=O)N1CCCCNc1ncnc2cc(F)ccc12 [Example 61, 6-(4-((7-Fluoroquinazolin-4-yl)amino)butyl)-4,6-diazaspiro[2.4]heptane-5,7-dione]
IC50 (IL-6; THP-1, Table 8, PMA 50 ng/mL): 5.84 µM | IC50 (IL-1β; THP-1, Table 8, PMA 50 ng/mL): 134 µM

O=C1NC2(CC2)C(=O)N1CCCCNc1ncnc2cc(Cl)ccc12 [Example 65, 6-(4-((7-Chloroquinazolin-4-yl)amino)butyl)-4,6-diazaspiro[2.4]heptane-5,7-dione]
IC50 (IL-6; THP-1, Table 8, PMA 50 ng/mL): 2.02 µM

O=C1NC2(CC2)C(=O)N1CCCCCNc1ncnc2cc(Cl)ccc12 [Example 68, 6-(5-((7-Chloroquinazolin-4-yl)amino)pentyl)-4,6-diazaspiro[2.4]heptane-5,7-dione]
IC50 (IL-6; THP-1, Table 8, PMA 50 ng/mL): 0.42 µM

O=C1NC2(CCC2)C(=O)N1CCCCCNc1ncnc2cc(Cl)ccc12 [Example 70, 7-(5-((7-Chloroquinazolin-4-yl)amino)pentyl)-5,7-diazaspiro[3.4]octane-6,8-dione]
IC50 (IL-6; THP-1, Table 8, PMA 50 ng/mL): 0.46 µM

C[C@H](CCCN1C(=O)CNC1=O)Nc1ncnc2cc(Cl)ccc12 [Example 74, (R)-3-(4-((7-Chloroquinazolin-4-yl)amino)pentyl)imidazolidine-2,4-dione]
IC50 (IL-6; THP-1, Table 8, PMA 50 ng/mL): 12.4 µM
